From PubChem BioAssay (NCI)
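Five concentrations, 48 hours, 96-well plates. At the TGI there is no net growth.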

Legend:
Experiment in all cases: NCI tumour cell line growth inhibition, 48 h
[1] = system: 786-0 renal
[2] = system: A498 renal
[3] = system: A549 NSCLC
[4] = system: ACHN renal
[5] = system: BT-549 breast
[6] = system: CAKI-1 renal
[7] = system: CCRF-CEM leukemia
[8] = system: COLO 205 colon
[9] = system: DU-145 prostate
[10] = system: EKVX NSCLC
[11] = system: HCT-116 colon
[12] = system: HCT-15 colon
[13] = system: HL-60(TB) leukemia
[14] = system: HOP-62 NSCLC
[15] = system: HOP-92 NSCLC
[16] = system: HS 578T breast
[17] = system: HT29 colon
[18] = system: IGROV1 ovarian
[19] = system: K-562 leukemia
[20] = system: KM12 colon
[21] = system: LOX IMVI melanoma
[22] = system: M14 melanoma
[23] = system: MALME-3M melanoma
[24] = system: MCF7 breast
[25] = system: MDA-MB-231 breast
[26] = system: MDA-MB-435
[27] = system: MDA-N
[28] = system: MOLT-4 leukemia
[29] = system: NCI-H226 lung
[30] = system: NCI-H23 lung
[31] = system: NCI-H460 lung
[32] = system: NCI-H522 lung
[33] = system: NCI/ADR-RES ovarian
[34] = system: OVCAR-3 ovarian
[35] = system: OVCAR-4 ovarian
[36] = system: OVCAR-5 ovarian
[37] = system: OVCAR-8 ovarian
[38] = system: PC-3 prostate
[39] = system: RPMI-8226 leukemia
[40] = system: RXF 393 renal
[41] = system: SF-268 CNS
[42] = system: SF-295 CNS
[43] = system: SF-539 CNS
[44] = system: SK-MEL-2 melanoma
[45] = system: SK-MEL-28 melanoma
[46] = system: SK-MEL-5 melanoma
[47] = system: SK-OV-3 ovarian
[48] = system: SN12C renal
[49] = system: SNB-19 CNS
[50] = system: SNB-75 CNS
[51] = system: SR leukemia
[52] = system: SW-620 colon
[53] = system: T-47D breast
[54] = system: TK-10 renal
[55] = system: U251 CNS
[56] = system: UACC-257 melanoma
[57] = system: UACC-62 melanoma
[58] = system: UO-31 renal

O=C1OC(=O)C2C1C(c1ccccc1[N+](=O)[O-])C=C(c1ccco1)N2c1ccncc1 (stereo not drawn)
TGI [1]: 3.97 µM
TGI [2]: 26.9 µM
TGI [3]: 31.6 µM
TGI [4]: 3.24 µM
TGI [5]: 35.4 µM
TGI [6]: 37.5 µM
TGI [7]: 17 µM
TGI [8]: 23.9 µM
TGI [9]: 19.7 µM
TGI [10]: 39.7 µM
TGI [11]: 3.31 µM
TGI [12]: 12.8 µM
TGI [13]: 5.63 µM
TGI [14]: 38.2 µM
TGI [15]: 15.8 µM
TGI [16]: > 100 µM
TGI [17]: 6.13 µM
TGI [18]: 5.3 µM
TGI [19]: 5.33 µM
TGI [20]: 4.65 µM
TGI [21]: 3.82 µM
TGI [22]: > 50.5 µM
TGI [23]: 40.6 µM
TGI [24]: 6.73 µM
TGI [25]: 32.9 µM
TGI [26]: 52.6 µM
TGI [27]: 18.8 µM
TGI [28]: 6.38 µM
TGI [29]: > 39.2 µM
TGI [30]: 26.2 µM
TGI [31]: 31.9 µM
TGI [32]: 6.17 µM
TGI [33]: 52.6 µM
TGI [34]: 30.5 µM
TGI [35]: 29.8 µM
TGI [36]: 51.6 µM
TGI [37]: 31.8 µM
TGI [38]: 28.1 µM
TGI [39]: 4.4 µM
TGI [40]: 19.1 µM
TGI [41]: 46.3 µM
TGI [42]: 24.5 µM
TGI [43]: 16.6 µM
TGI [44]: 19.8 µM
TGI [45]: 24.5 µM
TGI [46]: 19.7 µM
TGI [47]: 32 µM
TGI [48]: 25 µM
TGI [49]: 35.5 µM
TGI [50]: 35.2 µM
TGI [51]: 1.44 µM
TGI [52]: 15 µM
TGI [53]: 14 µM
TGI [54]: > 26.9 µM
TGI [55]: 12 µM
TGI [56]: 6.84 µM
TGI [57]: 36.4 µM
TGI [58]: 15.3 µM
